Experimental data from patent US20100150842A1, “Method and Kit for Detecting Resistance in Living Organisms” (priority 2007, published 2010).
Where two headings read alike, the source gives them in different places.

Tests used:
[1] = cited from earlier work
[2] = system: fish and aquatic invertebrates; conditions: water bodies; cited from earlier work
[3] = system: SU-resistant Stellaria media biotypes; assay: Resistance factors of SU-resistant Stellaria media biotypes to herbicides (ratio of ED50 values); format: in vivo
From the text: The sensitivity to a specific herbicide of each biotype can be tested by determining the amount of herbicide needed to reduce the biomass to 50% of the non-treated plants of the same biotype. When comparing sensitivity among biotypes the “resistance factor” can be used to characterise the sensitivity.
The “resistance factor” is used to characterize the extent of susceptibility and resistance of a species to a herbicide. Resistance factors are typically represented as a ration of ED50 values for different biotypes.
The resistance factor is the ratio of the ED50 value of the resistant and susceptible biotypes.
Results from a study with 6 SU-resistant (Sulfonylurea-resistant) Stellaria media biotypes are included.

[4] = system: Stellaria media sensitive and target resistant biotypes; assay: TLC analysis of Stellaria media extracts, unexposed and exposed to Hussar OD; format: in vivo
From the text: S0=ID 1 Biotype 1 sensitive control S1=ID 1 Biotype 1 sensitive exposed to 1N Hussar OD+0.5 I/ha Renol R10=ID 9 Biotype 2 Target resistant control R11=ID 9 Biotype 2 Target resistant exposed to 1N Hussar OD+0.5 I/ha Renol R110=ID 9 Biotype 2 Target resistant exposed to 10N Hussar OD+0.5 I/ha Renol R20=ID 102 Biotype 3 Target resistant exposed control R21=ID 102 Biotype 3 Target resistant exposed to 1N Hussar OD+0.5 I/ha Renol R210=ID 102 Biotype 3 Target resistant exposed to 10N Hussar OD+0.5 I/ha Renol
Et=100 mg freeze-dried plant material in 4.00 ml 80% Ethanol extracted for 20 min. in ultrasonic bath (Réalisation Etudes Ultra Son (REUS), 16, allée des Cystes, 06390 Contes, France).
Aq=50 mg freeze-dried plant material in 4.00 ml 80% Ethanol extracted for 20 min. in ultrasonic bath (Réalisation Etudes Ultra Son (REUS), 16, allée des Cystes, 06390 Contes, France)+200 it EtOH after filtration.
The extracts (10 μl) were applicated on Silicagel 60 Merck 1.05721 (10×20 cm) or (5 μl) Cellulose aluminium Merck 1.05552.0001 with together with the reference T=1 0/00× in ethanol using a TLC Automatic TLC Sampler III.

[5] = system: Stellaria media SU-susceptible and SU-resistant biotype; assay: Biomarker pattern (HPPC) in extracts of Stellaria media exposed to iodosulfuron; format: in vivo; conditions: for number of type B biomarkers detected in extracts of susceptible plants: 50% of recommended field dose
Procedure: A SU-susceptible and SU-resistant biotype of Stellaria media was cultivated outdoors in 2-litre pots. At the 4-5 leaf stage the plants were exposed to iodosulfuron (IOD) applied in mixture with a methylated vegetable oil (Renol). Iodosulfuron was applied at 50% of the recommended field dose. The plants were harvested 4, 7 and 14 days after exposure. Immediately after harvest the plants were frozen and freeze-dried.
Freeze-dried plant material (50 mg per ml of 75% ethanol) was extracted in ultrasonic bath with ice for two hours. The extracts were centrifuged before analysis.
A biomarker pattern was detected as phytochemical changes in plant extracts. A comparison of the extracts of an un-treated susceptible (Biotype 1) and an untreated resistant (Biotype 2) of Stellaria media is shown as biomarkers type A. See further description in Example 3.
A comparison of extracts of the same biotypes exposed to iodosulfuron is shown as biomarkers type B. See further description in Example 3.
High Performance Planar Chromatography (HPPC)-systems were used to detect the two types of biomarkers.

[6] = system: Papaver rhoeas sensitive and target resistant biotypes; assay: TLC analysis of Papaver rhoeas extracts, unexposed and exposed to Hussar OD; format: in vivo
From the text: S0=ID 150 Biotype 4 sensitive control S1=ID 150 Biotype 4 sensitive exposed to 1N Hussar OD+0.5 I/ha Renol R0=ID 397 Biotype 5 Target resistant control R1=ID 397 Biotype 5 Target resistant exposed to 1N Hussar OD+0.5 I/ha Renol R10=ID 397 Biotype 5 Target resistant exposed to 10N Hussar OD+0.5 I/ha Renol R20=ID 248 Biotype 6 Target resistant exposed control R21=ID 248 Biotype 6 Target resistant exposed to 1N Hussar OD+0.5 I/ha Renol R210=ID 248 Biotype 6 Target resistant exposed to 10N Hussar OD+0.5 I/ha Renol R30=ID 406 Biotype 12 Target resistant exposed control R31=ID 406 Biotype 12 Target resistant exposed to 1N Hussar OD+0.5 I/ha Renol R310=ID 406 Biotype 12 Target resistant exposed to 10N Hussar OD+0.5 I/ha Renol
100 mg freeze-dried plant material (Papaver rhoeas (Papaveraceae) in 4.00 ml 80% Ethanol extracted for 20 min. in ultrasonic bath (Realisation Etudes Ultra Son (REUS), 16, allée des Cystes, 06390 Contes, France). The extract was filtered through GELMAN GHP Agrodisc 13 0.45 μm.
The extracts (20 μl) were applicated on Silicagel 60 Merck 1.05721 (10×20 cm) or (10 μl) Cellulose aluminium Merck 1.05552.0001 together with the reference 1 0/00 papaverin in ethanol using a TLC Automatic TLC Sampler III.
TLC 5) Plate: Cellulose; Solvent: 2% Acetic acid in Water. The results can be seen in FIG. 7.
Detection: UV 366 nm after derivatisation with NEU+PEG is seen in FIG. 7b.

N#Cc1cc(Br)c(O)c(Br)c1 [Bromoxynil]
half-life ([1]; most soil types): two

O=C(O)CNCP(=O)(O)O [Glyphosate]
half-life ([1]; degraded by rapid microbial action): 3-5 weeks

CCC(CC)Nc1c([N+](=O)[O-])cc(C)c(C)c1[N+](=O)[O-] [Pendimethalin]
toxicity to fish [2]: toxic

COc1ncc(F)c2nc(S(=O)(=O)Nc3c(F)cccc3F)nn12 [florasulam]
cross-resistance of SU-resistant biotypes [3]: could not be confirmed

COc1nc(C)nc(NC(=O)NS(=O)(=O)c2cc(I)ccc2C(=O)O)n1 [iodosulfuron]
new flavonoid in plant extract (TLC) ([4]; Stellaria media sensitive plant exposed): present
new flavonoid in plant extract (TLC) ([4]; Stellaria media target resistant biotypes, only at very high exposure concentrations (10N)): not present
number of type B biomarkers detected in extracts of susceptible plants ([5]; 7 and 14 days after exposure): 7
number of type B biomarkers detected in extracts of susceptible plants ([5]; 4 days after exposure): Five
unique biomarker pattern in extracts ([5]; SU-resistant Stellaria media biotype): absent
unique biomarker pattern in extracts ([5]; susceptible Stellaria media biotype, 4, 7 and 14 days after exposure): detected
new flavonoid in plant extract (TLC) ([6]; Papaver rhoeas biotypes of the target resistant plants): not present
new flavonoid in plant extract (TLC) ([6]; Papaver rhoeas sensitive plant exposed): present
